Reference: patent US9108983B2, “Pyrrole compounds, a process for their preparation and pharmaceutical compositions containing them” (LES LABORATOIRES SERVIER, priority 2013, dated 2015)
Counter-ions that a name gives are not always drawn.

What was measured:
[1] = test system: RS4;11 leukaemia tumour line; experiment: In vitro cytotoxicity (Microculture Tetrazolium Assay); format: cell-based; conditions: Homo sapiens, RS4-11, 48 h, RS4;11 cells, exposed for 48 hours, cell viability; read-out: IC50 (nM) MTT RS4;11
Method: The cytotoxicity studies were carried out on the RS4;11 leukaemia tumour line.
The cells are distributed onto microplates and exposed to the test compounds for 48 hours.
The cell viability is then quantified by a colorimetric assay, the Microculture Tetrazolium Assay (Cancer Res., 1987, 47, 939-942).

[2] = test system: cleaved (activated) form of caspase 3 in RS4;11 leukaemia cell xenograft tumours; experiment: Quantification of the cleaved form of caspase 3 in vivo (MSD ELISA); design: species or system mice (SCID strain); conditions: Mus musculus, cleaved caspase 3 MSD test, oral route, tumour removed after 2 hours, read-out: Activation factor ± SEM (versus control)
Method: The ability of the compounds of the invention to activate caspase 3 is evaluated in a xenograft model of RS4;11 leukaemia cells.
1×10^7 RS4;11 cells are grafted sub-cutaneously into immunosuppressed mice (SCID strain). 25 to 30 days after the graft, the animals are treated orally with the various compounds. After treatment, the tumour masses are recovered and lysed, and the cleaved (activated) form of caspase 3 is quantified in the tumour lysates.
The quantification is carried out using the “Meso Scale Discovery (MSD) ELISA platform” test, which specifically assays the cleaved form of caspase 3. It is expressed in the form of an activation factor corresponding to the ratio between the quantity of cleaved caspase 3 in the treated mice divided by the quantity of cleaved caspase 3 in the control mice.

Bcl-2 protein = Bcl-2 protein (histag-Bcl-2, UniProtKB P10415) (Homo sapiens (Human), UniProt P10415); experiment: Inhibition of Bcl-2 by the fluorescence polarisation technique; format: binding; conditions: incubation for 2 hours, read-out: IC50 (nM) Bcl-2 FP
Bcl-2 protein, sequence (P10415 whole entry): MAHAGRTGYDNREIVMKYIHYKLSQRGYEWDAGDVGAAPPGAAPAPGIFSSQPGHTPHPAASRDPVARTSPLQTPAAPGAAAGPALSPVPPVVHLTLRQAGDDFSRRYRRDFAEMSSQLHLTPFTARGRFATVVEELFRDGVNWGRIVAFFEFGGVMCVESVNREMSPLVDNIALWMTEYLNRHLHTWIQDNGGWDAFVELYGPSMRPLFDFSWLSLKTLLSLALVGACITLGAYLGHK
Method in brief: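 In pH 7.4 buffer (Hepes 10 mM, NaCl 150 mM, Tween20 0.05%), test compounds at increasing concentrations competed with a fluorescein peptide (1.00×10^−8 M final) for histag-Bcl-2 (2.50×10^−8 M final). Readout was fluorescence polarisation after a 2 h incubation.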

IC50 (Bcl-2 protein) [nM]	Structure (SMILES)	IC50 [1] [nM]	fold induction at 25 mg/kg [2]
5.9	Cc1c(C(=O)N(c2ccc(O)cc2)c2cnn(C)c2)cc(-c2cc3c(cc2C(=O)N2Cc4ccccc4C[C@H]2CN2CCOCC2)OCO3)n1C [Example 47, N-(4-Hydroxyphenyl)-1,2-dimethyl-N-(1-methyl-1H-pyrazol-4-yl)-5-(6-{[(3S)-3-(morpholin-4-ylmethyl)-3,4-dihydroisoquinolin-2(1H)-yl]carbonyl}-1,3-benzodioxol-5-yl)-1H-pyrrole-3-carboxamide hydrochloride]	44.5	12.3 ± 2.4
6.1	Cc1c(C(=O)N(c2ccc(O)cc2)c2cnc3c(ccn3C)c2)cc(-c2cc(Cl)ccc2C(=O)N2Cc3ccccc3C[C@H]2CN2CCOCC2)n1C [Example 71, 5-(5-Chloro-2-{[(3S)-3-(morpholin-4-ylmethyl)-3,4-dihydroisoquinolin-2(1H)-yl]carbonyl}phenyl)-N-(4-hydroxyphenyl)-1,2-dimethyl-N-(1-methyl-1H-pyrrolo[2,3-b]pyridin-5-yl)-1H-pyrrole-3-carboxamide hydrochloride]	12.9	46.8 ± 16.1
5.1	Cc1c(C(=O)N(c2ccc(O)cc2)c2cc(C#N)n(C)c2)cc(-c2cc(F)ccc2C(=O)N2Cc3ccccc3C[C@H]2CN2CCOCC2)n1C [Example 230, N-(5-Cyano-1-methyl-1H-pyrrol-3-yl)-5-(5-fluoro-2-{[(3S)-3-(morpholin-4-ylmethyl)-3,4-dihydroisoquinolin-2(1H)-yl]carbonyl}phenyl)-N-(4-hydroxyphenyl)-1,2-dimethyl-1H-pyrrole-3-carboxamide hydrochloride]	18.3	42.2 ± 9.3

Structure (SMILES)	IC50 (Bcl-2 protein) [nM]	IC50 [1] [nM]	fold induction at 25 mg/kg [2]
Cc1c(C(=O)N(c2ccc(O)cc2)c2cnc3c(c2)CCN3C)cc(-c2cc(Cl)ccc2C(=O)N2Cc3ccccc3C[C@H]2CN2CCOCC2)n1C [Example 388, 5-(5-Chloro-2-{[(3S)-3-(morpholin-4-ylmethyl)-3,4-dihydroisoquinolin-2(1H)-yl]carbonyl}phenyl)-N-(4-hydroxyphenyl)-1,2-dimethyl-N-(1-methyl-2,3-dihydro-1H-pyrrolo[2,3-b]pyridin-5-yl)-1H-pyrrole-3-carboxamide dihydrochloride]	3.6	16.5	85.7 ± 3.7
